Test results as given in ChEMBL document CHEMBL5247665, “Improved synthesis and anticancer activity of a potent neuronal nitric oxide synthase inhibitor” (Bioorg Med Chem Lett, 2023).

Experiment: Toxicity in mouse at 10 mg/kg measured after 21 days
Assay type: organism-based
Conditions: in vivo, 504 h, time 21 day

SMILES: CNCc1cccc(CCc2ccc3c(C)cc(N)nc3c2)c1.Cl.Cl
- Activity: Non-Toxic
